In ChEMBL document CHEMBL5236635, “Structure-Based Drug Design and Synthesis of Novel N-Aryl-2,4-bithiazole-2-amine CYP1B1-Selective Inhibitors in Overcoming Taxol Resistance in A549 Cells” (J Med Chem, 2022):

How the values were obtained:
CYP1B1 = biological target: T1, CYP1B1 (Homo sapiens, UniProt Q16678); experiment: Inhibition of recombinant human CYP1B1 assessed as inhibition ratio at 100 nM using 7-ethyl-0-resorufin as substrate incubated for 30 mins in presence of NADPH by EROD assay relative to control; details: recombinant human CYP1B1, probe 7-ethyl-0-resorufin
T1 sequence (Q16678 whole entry): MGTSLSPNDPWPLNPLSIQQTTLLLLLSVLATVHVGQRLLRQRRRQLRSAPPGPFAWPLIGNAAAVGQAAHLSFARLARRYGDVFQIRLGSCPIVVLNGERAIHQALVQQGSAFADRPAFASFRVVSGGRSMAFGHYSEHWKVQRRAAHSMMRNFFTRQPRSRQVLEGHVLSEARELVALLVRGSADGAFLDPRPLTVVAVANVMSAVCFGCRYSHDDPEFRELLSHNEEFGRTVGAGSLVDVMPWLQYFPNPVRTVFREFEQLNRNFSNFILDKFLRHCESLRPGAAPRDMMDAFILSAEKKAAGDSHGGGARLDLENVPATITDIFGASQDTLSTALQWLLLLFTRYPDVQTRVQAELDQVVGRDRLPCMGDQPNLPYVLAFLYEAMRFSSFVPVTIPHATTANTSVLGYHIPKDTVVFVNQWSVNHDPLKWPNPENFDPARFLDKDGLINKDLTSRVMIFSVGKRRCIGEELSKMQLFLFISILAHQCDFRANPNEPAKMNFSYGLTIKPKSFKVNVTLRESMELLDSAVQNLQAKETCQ

Cytochrome P450 1A1 = biological target: T2, Cytochrome P450 1A1 (Homo sapiens, UniProt P04798); experiment: Inhibition of recombinant human CYP1A1 using 7-ethyl-0-resorufin as substrate incubated for 30 mins in presence of NADPH by EROD assay
T2 sequence (P04798 whole entry): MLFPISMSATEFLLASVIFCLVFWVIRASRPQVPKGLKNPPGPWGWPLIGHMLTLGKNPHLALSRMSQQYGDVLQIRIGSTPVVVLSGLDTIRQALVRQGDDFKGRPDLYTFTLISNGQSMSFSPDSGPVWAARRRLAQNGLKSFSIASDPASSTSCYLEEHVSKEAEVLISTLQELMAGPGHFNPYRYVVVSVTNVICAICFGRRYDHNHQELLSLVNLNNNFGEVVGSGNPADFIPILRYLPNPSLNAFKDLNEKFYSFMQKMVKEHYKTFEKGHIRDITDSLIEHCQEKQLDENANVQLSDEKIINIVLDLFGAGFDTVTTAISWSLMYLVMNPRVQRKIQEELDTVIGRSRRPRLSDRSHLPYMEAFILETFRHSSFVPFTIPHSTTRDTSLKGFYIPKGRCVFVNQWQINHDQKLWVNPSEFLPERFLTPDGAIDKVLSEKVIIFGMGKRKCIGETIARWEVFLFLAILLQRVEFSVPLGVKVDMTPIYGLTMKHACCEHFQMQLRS

Cytochrome P450 1B1 = biological target: T3, Cytochrome P450 1B1 (Homo sapiens, UniProt Q16678); experiment: Inhibition of recombinant human CYP1B1 using 7-ethyl-0-resorufin as substrate incubated for 30 mins in presence of NADPH by EROD assay
T3 sequence (Q16678 whole entry): T1 sequence (Q16678 whole entry)

Cytochrome P450 1A2 = biological target: T4, Cytochrome P450 1A2 (Homo sapiens, UniProt P05177); experiment: Inhibition of recombinant human CYP1A2 using 7-ethyl-0-resorufin as substrate incubated for 30 mins in presence of NADPH by EROD assay
T4 sequence (P05177 whole entry): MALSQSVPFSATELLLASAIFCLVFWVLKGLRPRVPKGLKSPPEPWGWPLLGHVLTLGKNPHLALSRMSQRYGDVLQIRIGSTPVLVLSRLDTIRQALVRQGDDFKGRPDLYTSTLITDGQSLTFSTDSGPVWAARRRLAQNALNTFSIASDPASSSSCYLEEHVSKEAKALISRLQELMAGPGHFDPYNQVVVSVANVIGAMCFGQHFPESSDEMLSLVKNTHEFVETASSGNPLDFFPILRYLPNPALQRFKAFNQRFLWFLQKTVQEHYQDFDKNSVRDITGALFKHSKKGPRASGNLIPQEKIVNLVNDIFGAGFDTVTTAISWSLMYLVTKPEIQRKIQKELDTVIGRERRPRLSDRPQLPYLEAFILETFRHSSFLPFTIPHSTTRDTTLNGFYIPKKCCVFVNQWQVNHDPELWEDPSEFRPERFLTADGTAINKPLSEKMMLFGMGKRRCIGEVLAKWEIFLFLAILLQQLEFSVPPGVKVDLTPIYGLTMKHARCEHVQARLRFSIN

CYP1A1 versus CYP1B1 = experiment: Selectivity index, ratio of IC50 for inhibition of recombinant human CYP1A1 to IC50 for inhibition of recombinant human CYP1B1; details: recombinant human CYP1A1 and recombinant human CYP1B1
CYP1A2 versus CYP1B1 = experiment: Selectivity index, ratio of IC50 for inhibition of recombinant human CYP1A2 to IC50 for inhibition of recombinant human CYP1B1; details: recombinant human CYP1A2 and recombinant human CYP1B1

| SMILES | inhibition at 0.5 h, 0.1 µM (CYP1B1) [%] | IC50 (Cytochrome P450 1A1) [nM] | IC50 (Cytochrome P450 1B1) [nM] | IC50 (Cytochrome P450 1A2) [nM] | selectivity ratio (CYP1A1 versus CYP1B1) | selectivity ratio (CYP1A2 versus CYP1B1) |
| --- | --- | --- | --- | --- | --- | --- |
| CC(=O)Nc1cccc(Nc2nc(-c3nccs3)cs2)c1 | 93.7 | – | – | – | – | – |
| CCc1sc(-c2csc(Nc3ccc(N4CCOCC4)cc3)n2)nc1-c1ccncc1 | – | 153 | 155 | 3450 | 0.99 | 22.3 |
| Clc1cc(Cl)cc(Nc2nc(-c3nc(-c4ccccc4Cl)cs3)cs2)c1 | – | 1120 | 6.64 | – | – | – |
| CCc1sc(-c2csc(Nc3cccc(F)c3)n2)nc1-c1ccccc1 | – | 246 | 246 | – | – | – |
| c1cc(Nc2nc(-c3nccs3)cs2)cc(-n2ccnc2)c1 | 92.4 | – | – | – | – | – |
| Clc1cc(Cl)cc(Nc2nc(-c3nc(-c4ccccn4)cs3)cs2)c1 | – | 916 | 44.8 | 5390 | 20.4 | 120 |
| COc1cc(Nc2nc(-c3nc(-c4cccc(Cl)c4)cs3)cs2)cc(OC)c1 | – | 6520 | 15.9 | – | – | – |
| c1cc(Nc2nc(-c3nccs3)cs2)c2cccnc2c1 | 36 | – | – | – | – | – |
| COc1cc(Nc2nc(-c3nc(-c4ccccc4)cs3)cs2)cc(OC)c1 | – | 222 | 3.92 | – | – | – |
| Fc1cccc(Nc2nc(-c3nc(-c4cccnc4)cs3)cs2)c1 | – | 30.3 | 0.551 | – | – | – |
| Clc1cc(Cl)cc(Nc2nc(-c3nc(-c4cccnc4)cs3)cs2)c1 | – | 387 | 33.1 | 227 | 11.7 | 6.85 |
| c1ccc(-c2csc(-c3csc(Nc4ccc(N5CCOCC5)cc4)n3)n2)nc1 | – | 47.9 | 12.9 | 11700 | 3.71 | 905 |
| CCc1sc(-c2csc(Nc3cc(Cl)cc(Cl)c3)n2)nc1-c1ccccc1 | – | 99.9 | 29.5 | 227 | 3.39 | 7.69 |
| Fc1cccc(Nc2nc(-c3nc(-c4ccc(Cl)cc4F)cs3)cs2)c1 | – | > 10000 | > 1000 | > 10000 | – | – |
| Fc1cc(Cl)ccc1-c1csc(-c2csc(Nc3ccc(N4CCOCC4)cc3)n2)n1 | – | > 10000 | 534 | 995 | – | 1.86 |
| COc1ccccc1Nc1nc(-c2nccs2)cs1 | 60 | – | – | – | – | – |
| Clc1cc(Cl)cc(Nc2nc(-c3nc(-c4ccccc4)cs3)cs2)c1 | – | 896 | 20.1 | – | – | – |
| COc1cccc(-c2csc(-c3csc(Nc4ccc(N5CCOCC5)cc4)n3)n2)c1 | – | 315 | 26.8 | 4670 | 11.7 | 174 |
| Clc1ccccc1Nc1nc(-c2nccs2)cs1 | 72.8 | – | – | – | – | – |

| SMILES | inhibition at 0.5 h, 0.1 µM (CYP1B1) [%] | IC50 (Cytochrome P450 1A1) [nM] | IC50 (Cytochrome P450 1B1) [nM] | IC50 (Cytochrome P450 1A2) [nM] | selectivity ratio (CYP1A1 versus CYP1B1) | selectivity ratio (CYP1A2 versus CYP1B1) |
| --- | --- | --- | --- | --- | --- | --- |
| C#CCOc1ccccc1-c1csc(-c2csc(Nc3cccc(F)c3)n2)n1 | – | 125 | 22.2 | 1040 | 5.64 | 46.8 |
| Fc1cccc(Nc2nc(-c3nc(-c4ccccc4)c(-c4ccccc4)s3)cs2)c1 | – | 6780 | 518 | – | – | – |
| Clc1cc(Cl)cc(Nc2nc(-c3nc(-c4ccncc4)cs3)cs2)c1 | – | 1020 | 14.4 | 2340 | 70.4 | 162 |
| COc1cc(Nc2nc(-c3nc(-c4ccccc4)c(C)s3)cs2)cc(OC)c1 | – | 388 | 64.8 | 913 | 5.98 | 14.1 |
| Fc1ccc(-c2csc(-c3csc(Nc4ccc(N5CCOCC5)cc4)n3)n2)cc1 | – | 169 | 1620 | 1560 | 0.1 | 0.97 |
| COc1ccc(-c2csc(-c3csc(Nc4cccc(F)c4)n3)n2)cc1OC | – | 210 | 567 | 31.6 | 0.37 | 0.06 |
| Clc1cc(Cl)cc(Nc2nc(-c3nc(-c4ccccc4)c(-c4ccccc4)s3)cs2)c1 | – | 1920 | 39 | 381 | 49.3 | 9.77 |
| COc1cc(Nc2nc(-c3nc(-c4ccc(F)cc4)cs3)cs2)cc(OC)c1 | – | > 10000 | 65.1 | – | – | – |
| Fc1ccc(Nc2nc(-c3nccs3)cs2)nc1 | 75 | – | – | – | – | – |
| COc1cc(Nc2nc(-c3nc(-c4ccccc4)c(-c4ccccc4)s3)cs2)cc(OC)c1 | – | 524 | 86.2 | > 10000 | 6.08 | > 116 |
| COc1cc(Nc2nc(-c3nc(-c4ccc(Cl)cc4F)cs3)cs2)cc(OC)c1 | – | > 10000 | 12.7 | > 10000 | – | – |
| Clc1ccc(Nc2nc(-c3nccs3)cs2)nc1 | 78.8 | – | – | – | – | – |
| COc1cc(Nc2nc(-c3nc(-c4cccc(F)c4)cs3)cs2)cc(OC)c1 | – | 820 | 11.1 | – | – | – |
| COc1cc(Nc2nc(-c3nc(-c4cccc(C#N)c4)cs3)cs2)cc(OC)c1 | – | 552 | 16.7 | – | – | – |
| COc1ccc(Nc2nc(-c3nccs3)cs2)cc1OC | 78.9 | – | – | – | – | – |
| Fc1cccc(Nc2nc(-c3nc(-c4ccccn4)cs3)cs2)c1 | – | 314 | 11.8 | – | – | – |
| COc1ccc(-c2csc(-c3csc(Nc4cc(OC)cc(OC)c4)n3)n2)cc1 | – | 823 | 51.3 | – | – | – |
| Fc1cccc(Nc2nc(-c3nc(-c4ccccc4)cs3)cs2)c1 | – | 1270 | 6.49 | – | – | – |

Further lines, with some results ahead:

| inhibition at 0.5 h, 0.1 µM (CYP1B1) [%] | IC50 (Cytochrome P450 1A1) [nM] | IC50 (Cytochrome P450 1B1) [nM] | IC50 (Cytochrome P450 1A2) [nM] | SMILES | selectivity ratio (CYP1A1 versus CYP1B1) | selectivity ratio (CYP1A2 versus CYP1B1) |
| --- | --- | --- | --- | --- | --- | --- |
| 57.6 | – | – | – | O=[N+]([O-])c1cccc(Nc2nc(-c3nccs3)cs2)c1 | – | – |
| 51 | – | – | – | CN1CCN(c2ccc(Nc3nc(-c4nccs4)cs3)cc2)CC1 | – | – |
| 80 | – | – | – | c1ccc2cc(Nc3nc(-c4nccs4)cs3)ccc2c1 | – | – |
| 94.1 | – | – | – | Fc1ccc(Nc2nc(-c3nccs3)cs2)cc1Cl | – | – |
| 78 | – | – | – | COc1ccc(Nc2nc(-c3nccs3)cs2)cc1 | – | – |
| 54 | – | – | – | Nc1ccc(Nc2nc(-c3nccs3)cs2)cc1 | – | – |
| 41.3 | – | – | – | O=[N+]([O-])c1ccc(Nc2nc(-c3nccs3)cs2)cc1 | – | – |
| 57.9 | – | – | – | Nc1cccc(Nc2nc(-c3nccs3)cs2)c1 | – | – |
| 90 | 262 | 7.6 | – | Clc1cccc(Nc2nc(-c3nccs3)cs2)c1 | – | – |
| 93.4 | – | – | – | c1cnc2ccc(Nc3nc(-c4nccs4)cs3)cc2c1 | – | – |
| 73.9 | – | – | – | Oc1ccc(Nc2nc(-c3nccs3)cs2)cc1 | – | – |
| 89.6 | – | – | – | Fc1ccccc1Nc1nc(-c2nccs2)cs1 | – | – |
| 94.2 | 414 | – | – | COc1cccc(Nc2nc(-c3nccs3)cs2)c1 | 5.39 | – |
| 72.8 | – | – | – | Oc1cccc(Nc2nc(-c3nccs3)cs2)c1 | – | – |
| 82 | – | – | – | c1csc(-c2csc(Nc3ccc(-n4cncn4)cc3)n2)n1 | – | – |
| 92 | 957 | 35.7 | – | Fc1ccc(Nc2nc(-c3nccs3)cs2)cc1 | – | – |
| 81.5 | – | – | – | N#Cc1ccc(Nc2nc(-c3nccs3)cs2)cc1 | – | – |
| 56.4 | – | – | – | c1ccc(Nc2nc(-c3nccs3)cs2)cc1 | – | – |
| 43.7 | – | – | – | c1csc(-c2csc(Nc3ccc(N4CCNCC4)cc3)n2)n1 | – | – |
